US20230091225A1, “Bifunctional chimeric heterocyclic compounds for targeted degradation of androgen receptors and use thereof” (HINOVA PHARMACEUTICALS INC., priority 2019, published 2023)
Read-outs that look alike come from different tables or passages of the source.

Key:
androgen receptor (AR) [1] = molecular target: T1, androgen receptor (AR) (Homo sapiens, UniProt P10275); test: Degradation of androgen receptor (AR) protein in VCaP cells by Western blot; assay type: cell-based; settings: percentage of degraded AR at 100 nM, VCaP cells, 16 h
T1 sequence (P10275 1-920): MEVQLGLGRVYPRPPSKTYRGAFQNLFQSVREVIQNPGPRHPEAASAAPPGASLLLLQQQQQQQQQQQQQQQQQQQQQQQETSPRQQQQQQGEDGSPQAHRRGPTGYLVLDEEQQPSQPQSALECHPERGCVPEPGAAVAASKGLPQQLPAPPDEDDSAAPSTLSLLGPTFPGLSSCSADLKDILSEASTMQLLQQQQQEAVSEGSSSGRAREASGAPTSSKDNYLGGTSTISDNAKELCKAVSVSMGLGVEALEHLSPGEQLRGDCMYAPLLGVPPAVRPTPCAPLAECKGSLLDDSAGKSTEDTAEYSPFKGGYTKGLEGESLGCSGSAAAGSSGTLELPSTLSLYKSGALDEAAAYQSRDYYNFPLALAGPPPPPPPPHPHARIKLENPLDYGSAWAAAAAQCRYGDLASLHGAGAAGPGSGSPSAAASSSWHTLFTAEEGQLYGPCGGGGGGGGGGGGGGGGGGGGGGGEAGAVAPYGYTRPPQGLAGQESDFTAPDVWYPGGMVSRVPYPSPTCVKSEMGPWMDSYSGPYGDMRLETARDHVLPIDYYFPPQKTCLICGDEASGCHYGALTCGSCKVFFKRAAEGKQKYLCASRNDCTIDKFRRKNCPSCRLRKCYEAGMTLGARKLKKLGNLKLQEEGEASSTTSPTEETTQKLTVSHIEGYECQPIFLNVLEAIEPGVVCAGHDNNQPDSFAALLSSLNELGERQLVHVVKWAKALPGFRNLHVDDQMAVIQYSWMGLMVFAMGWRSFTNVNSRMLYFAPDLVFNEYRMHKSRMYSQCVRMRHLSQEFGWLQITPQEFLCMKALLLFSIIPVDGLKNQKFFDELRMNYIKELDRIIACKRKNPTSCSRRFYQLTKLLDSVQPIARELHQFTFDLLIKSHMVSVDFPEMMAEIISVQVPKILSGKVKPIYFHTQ
Procedure: Determination of the Degradation Activity of the Compound on Androgen Receptor (AR) Protein by Western Blot
1) VCaP cells were subcultured in cell culture media, and then the cells in good growth condition were seeded in a 12-well plate at 1 ml/well (5×10^5 cells/well), and cultured overnight in a 37° C., 5% CO2 cell incubator. 2) The test compound was prepared into a 10 mM stock solution with dimethyl sulfoxide (DMSO). Prior to use, the solution was diluted 3 times with DMSO. […] of the diluted compound solution was added to the cell culture well (ensuring that the DMSO concentration in the culture system was 0.1%), and two wells were set for each concentration. The plate was gently shaken to mix. In addition, the experiment included negative control wells (containing equal amount of DMSO) and positive control wells. 3) After culturing 16 h. the cells were lysed with RIPA cell lysate, and the protein was extracted. The protein concentration was measured with BCA kit. 5-fold concentrated protein loading buffer was added, and after heated at 100° C. for 5 min. the sample was stored at −20° C. 4) for each well, 30 μg of protein was loaded on polyacrylamide gel for electrophoresis. 5) The protein was transferred from polyacrylamide gel to PVDF membrane, and then 5% skim milk was added to close for 1 h at room temperature. The first antibody (Androgen Receptor (D6F11) XP Rabbit mAb and Anti-β-Actin Rabbit mAb) was added and incubated overnight at 4° C. The membrane was washed with TBST solution three times. 10 min for each time. The secondary antibody (horseradish peroxidase labeled goat […]) was added and incubated at room temperature for 2 h, and then the membrane was washed with TBST solution three times. 10 min for each time.
Finally, ECL chemiluminescence solution was added, and then photos were taken with automatic chemiluminescence instrument to collect pictures for analysis.

androgen receptor (AR) [2] = molecular target: T1, androgen receptor (AR); test: Degradation of androgen receptor (AR) protein in VCaP cells by ELISA; assay type: cell-based; settings: for Dmax: VCaP
[3] = AR degradation, VCaP cells, 16 h, ELISA, Table 3-2, read-out: DC50
[4] = AR degradation, VCaP cells, 16 h, ELISA, Table 3-2, read-out: Dmax (%)
[5] = AR degradation, VCaP cells, 16 h, ELISA, Table 3-1, read-out: DC50
[6] = AR degradation, VCaP cells, 16 h, ELISA, Table 3-1, read-out: Dmax (%)

N#Cc1ccc(O[C@H]2CC[C@H](NC(=O)c3ccc(N4C[C@H]5C[C@@H](CN6CC7CN(c8cc9c(cc8F)C(=O)N(C8CCC(=O)NC8=O)C9=O)CC7C6)C[C@H]5C4)nn3)CC2)cc1Cl (stereo partly drawn) [Compound 222, N-((1r,4r)-4-(3-chloro-4-cyanophenoxy)cyclohexyl)-6-((3aR,5R, 6aS)-5-((5-(2-(2,6-dioxopiperidin-3-yl)-6-fluoro-1,3-dioxoisoindolin-5-yl)hexahydropyrrolo[3,4-c]pyrrol-2(1H)-yl)methyl)hexahydrocyclopenta[c]pyrrole-2(1H)-yl)pyridazine-3-formamide]
inhibition at 0.1 µM (androgen receptor (AR) [1]): > 80%

N#Cc1ccc(O[C@H]2CC[C@H](NC(=O)c3cnc(N4CCC(CN5CCC(Nc6ccc7c(c6)C(=O)N(C6CCC(=O)NC6=O)C7=O)CC5)CC4)cn3)CC2)cc1Cl (some centres unmarked) [Compound 146]
inhibition at 0.1 µM (androgen receptor (AR) [1]): > 80%

N#Cc1ccc(O[C@H]2CC[C@H](NC(=O)c3ccc(N4CC5CN(CC6CN(c7cc8c(cc7F)C(=O)N(C7CCC(=O)NC7=O)C8=O)C6)CC5C4)nn3)CC2)cc1Cl (some centres unmarked) [Compound 160]
inhibition at 0.1 µM (androgen receptor (AR) [1]): < 25%

N#Cc1ccc(O[C@H]2CC[C@H](NC(=O)c3ccc(N4CCC(CN5CC6(CCN(c7cc8c(cc7F)C(=O)N(C7CCC(=O)NC7=O)C8=O)C6)C5)CC4)nn3)CC2)cc1Cl (some centres unmarked) [Compound 180, N-((1r,4r)-4-(3-chloro-4-cyanophenoxy)cyclohexyl)-6-(4-((6-(2-(2,6-dioxopiperidin-3-yl)-6-fluoro-1,3-dioxoisoindolin-5-yl)-2,6-diazaspiro[3.4]octan-2-yl)methyl)piperidin-1-yl)pyridazine-3-formamide]
inhibition at 0.1 µM (androgen receptor (AR) [1]): > 80%

CC1(C)[C@H](Oc2ccc(C#N)c(Cl)c2)C(C)(C)[C@H]1N1Cc2nc(C#C[C@H]3C[C@H](N4CCN(c5ccc6c(=O)n(C7CCC(=O)NC7=O)cnc6c5)CC4)C3)ccc2C1=O (some centres unmarked) [Compound 396]
DC50 (androgen receptor (AR) [2]; [3]): 10 to 100 nM | Dmax (androgen receptor (AR) [2]; [4]): > 80%

CC1(C)[C@H](Oc2ccc(C#N)c(Cl)c2)C(C)(C)[C@H]1N1Cc2nc(C#CC3CCC(N4CC5CC4CN5c4cc5c(cc4F)C(=O)N(C4CCC(=O)NC4=O)C5=O)CC3)cnc2C1=O (some centres unmarked) [Compound 387]
Dmax (%) (androgen receptor (AR) [2]; AR degradation, VCaP cells, 16 h, ELISA, Table 3-2): + (<40%) | DC50 (androgen receptor (AR) [2]; [3]): > 300 nM

CC1(C)[C@H](Oc2ccc(C#N)c(Cl)c2)C(C)(C)[C@H]1N1Cc2nc(C#CC3CCC(N4CCC5(CN(c6ccc7c(c6)C(=O)N(C6CCC(=O)NC6=O)C7=O)C5)C4)CC3)ccc2C1=O (some centres unmarked) [Compound 373]
DC50 (androgen receptor (AR) [2]; [5]): > 300 nM

CC1(C)[C@H](Oc2ccc(C#N)c(Cl)c2)C(C)(C)[C@H]1N1Cc2nc(N3CCC(CN4CCN(c5cc6c(cc5F)C(=O)N(C5CCC(=O)NC5=O)C6=O)CC4)CC3)ncc2C1=O (some centres unmarked) [Compound 382]
DC50 (androgen receptor (AR) [2]; [5]): 10 to 100 nM | Dmax (androgen receptor (AR) [2]; [6]): > 80%

N#Cc1ccc(OC2CCC(NC(=O)c3ccc(N4CCC5(CC4)CN(CC4CCN(c6cc7c(cc6F)C(=O)N(C6CCC(=O)NC6=O)C7=O)CC4)C5)nn3)CC2)cc1C(F)(F)F (centres unmarked) [Compound 285, N-((1r,4r) 4-(4-cyano-3-(trifluoromethyl)phenoxy)cyclohexyl)-6-(2-((1-(2,6-dioxopiperidin-3-yl)-6-fluoro-1,3-dioxoisoindolin-5-yl)piperidine-4-yl)methyl)-2,7-diazaspiro [3.5] nonan-7-yl)pyridazine-3-formamide]
Dmax (%) (androgen receptor (AR) [2]): ++++ (key: A: >80%; B: 79%-50%; C: 49%-25%; D: <25%) | DC50 (androgen receptor (AR) [2]; read-out: DC50): < 10 nM

N#Cc1ccc(O[C@H]2CC[C@H](NC(=O)c3ncc(N4CC5(CCN(CC6CCN(c7cc8c(cc7F)C(=O)N(C7CCC(=O)NC7=O)C8=O)CC6)CC5)C4)cn3)CC2)cc1Cl (some centres unmarked) [Compound 150]
DC50 (androgen receptor (AR) [2]; [5]): > 300 nM | Dmax (androgen receptor (AR) [2]): < 40%

Cc1cc(O[C@H]2C(C)(C)[C@H](N3Cc4nc(C#C[C@H]5CC[C@H](N6CCN(c7ccc8c(c7)C(=O)N(C7CCC(=O)NC7=O)C8=O)CC6)CC5)ccc4C3=O)C2(C)C)ccc1C#N (some centres unmarked) [Compound 402]
DC50 (androgen receptor (AR) [2]): < 10 nM | Dmax (androgen receptor (AR) [2]): > 80%

N#Cc1ccc(O[C@H]2CC[C@H](NC(=O)c3ccc(N4CCC(CN5CC6(C5)CN(c5ccc7c(c5)C(=O)N(C5CCC(=O)NC5=O)C7=O)C6)CC4)nn3)CC2)cc1Cl (some centres unmarked) [Compound 121, N-((1r,4r)-4-(3-chloro-4-cyanophenoxy)cyclohexyl)-6-(4-((6-(2-(2,6-dioxopiperidin-3-yl)-1,3-dioxoisoindolin-5-yl)-2,6-diazaspiro[3.3]heptan-2-yl)methyl)piperidin-1-yl)pyridazine-3-amide]
DC50 (androgen receptor (AR) [2]): < 10 nM | Dmax (androgen receptor (AR) [2]): > 80%

[2H]C([2H])([2H])Oc1cc(O[C@H]2C(C)(C)[C@H](N3Cc4nc(C#C[C@H]5CC[C@H](N6CCN(c7ccc8c(c7)C(=O)N(C7CCC(=O)NC7=O)C8=O)CC6)CC5)ccc4C3=O)C2(C)C)ccc1C#N (some centres unmarked) [Compound 429]
DC50 (androgen receptor (AR) [2]; [3]): < 10 nM | Dmax (androgen receptor (AR) [2]; [4]): > 80%

N#Cc1ccc(O[C@H]2CC[C@H](NC(=O)c3ccc(N4CCC(CN5CCC6(CC5)CN(c5cc7c(cc5F)C(=O)N(C5CCC(=O)NC5=O)C7=O)C6)CC4)nn3)CC2)cc1C(F)(F)F (some centres unmarked) [Compound 152]
DC50 (androgen receptor (AR) [2]): 10 to 100 nM | Dmax (androgen receptor (AR) [2]): > 80%

C[C@H]1CN(C[C@@H]2[C@H]3CN(c4cc5c(cc4F)C(=O)N(C4CCC(=O)NC4=O)C5=O)C[C@@H]23)CCN1c1ccc(C(=O)N[C@H]2CC[C@H](Oc3ccc(C#N)c(Cl)c3)CC2)nn1 (some centres unmarked) [Compound 170]
DC50 (androgen receptor (AR) [2]; [5]): < 10 nM | Dmax (androgen receptor (AR) [2]; [6]): > 80%

CC1(C)[C@H](Oc2ccc(C#N)c(Cl)c2)C(C)(C)[C@H]1N1Cc2nc(C#CC3CCC(N4CCC5(CC4)CN(c4ccc6c(c4)C(=O)N(C4CCC(=O)NC4=O)C6=O)C5)CC3)ccc2C1=O (some centres unmarked) [Compound 362]
DC50 (androgen receptor (AR) [2]; [5]): < 10 nM | Dmax (androgen receptor (AR) [2]; [6]): > 80%

CCOc1cc(O[C@H]2CC[C@H](NC(=O)c3ccc(N4CCC(CN5CCC6(CC5)CN(c5ccc7c(c5)C(=O)N(C5CCC(=O)NC5=O)C7=O)C6)CC4)nn3)CC2)ccc1C#N (some centres unmarked) [Compound 154]
DC50 (androgen receptor (AR) [2]): < 10 nM | Dmax (androgen receptor (AR) [2]): > 80%

N#Cc1ccc(O[C@H]2CC[C@H](NC(=O)c3ccc(N4CCC5(CC4)CN(CC4CCN(c6cc7c(cc6F)C(=O)N(C6CCC(=O)NC6=O)C7=O)CC4)C5)nn3)CC2)cc1Cl (some centres unmarked) [Compound 75]
DC50 (androgen receptor (AR) [2]; [5]): < 10 nM | Dmax (androgen receptor (AR) [2]; [6]): > 80%

COc1cc(O[C@H]2C(C)(C)[C@H](N3Cc4nc(C#C[C@H]5C[C@H](N6CCN(c7ccc8c(c7)C(=O)N(C7CCC(=O)NC7=O)C8=O)CC6)C5)ccc4C3=O)C2(C)C)ccc1C#N (some centres unmarked) [Compound 392]
DC50 (androgen receptor (AR) [2]; [3]): 10 to 100 nM | Dmax (androgen receptor (AR) [2]; [4]): > 80%

CC1(C)C(Oc2ccc(C#N)c(Cl)c2)C(C)(C)C1N1Cc2nc(C#CC3CCC(N4CC5CN(c6ccc7c(c6)C(=O)N([C@@H]6CCC(=O)NC6=O)C7=O)CC5C4)CC3)ccc2C1=O (some centres unmarked) [Compound 349, 2-Chloro-4-((1r,3r)-3-(2-((4-(5-(2-(2,6-dioxopiperidin-3-yl)-1,3-dioxoisoindolin-5-yl)hexahydropyrrolo[3,4-c]pyrrol-2(1H)-yl)cyclohexyl)ethynyl)-5-oxo-5,7-dihydro-6H-pyrrolo[3,4-b]pyridin-6-yl)-2,2,4,4-tetramethylcyclobutoxy)benzonitrile]
Dmax (%) (androgen receptor (AR) [2]; AR degradation, VCaP cells, 16 h, ELISA, Table 3-1): ++++ (>80%) | DC50 (androgen receptor (AR) [2]; read-out: DC50): 10 to 100 nM
